Reference: patent US9006442B2, “Cannabinoid receptor modulators” (Lupin Limited, priority 2011, dated 2015)

What follows are molecules tested against hCB2 (Homo sapiens, UniProt P34972) (assay: cAMP determination in functional hCB2-CHO stable cells (HTRF)). Details: not given.
Chain of hCB2 (P34972 whole entry): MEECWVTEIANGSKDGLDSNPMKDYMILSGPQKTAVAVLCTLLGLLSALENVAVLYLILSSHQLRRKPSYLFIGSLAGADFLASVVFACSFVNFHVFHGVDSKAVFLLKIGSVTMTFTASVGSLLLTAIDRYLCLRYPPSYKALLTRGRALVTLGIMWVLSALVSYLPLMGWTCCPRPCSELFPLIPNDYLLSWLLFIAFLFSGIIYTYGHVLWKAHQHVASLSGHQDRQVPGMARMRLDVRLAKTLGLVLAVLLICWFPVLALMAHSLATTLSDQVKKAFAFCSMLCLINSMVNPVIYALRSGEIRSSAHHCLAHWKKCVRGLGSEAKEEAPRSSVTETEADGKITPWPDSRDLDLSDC
Type: cell-based
Method: In-Vitro Assay Method for Determination of cAMP in Functional hCB2—CHO Stable Cells:
Recombinant CHO-hCB2 cells (procured from Perkin Elmer Inc. USA) were propagated and maintained in Ham's F-12 complete medium containing 10% heat inactivated FBS (Sigma.UK) and 1× penstrep. For assay, 0.1×10^6 to 1.0×10^6 CHO-hCB2 cells were seeded in T-25 flask and grown to mid-log phase in culture media without antibiotics for 2-3 days. […] The test is performed in 96^1/2 area black well plates. For agonist testing, 20 μl cells/well were mixed with 20 μl of sample and 10 μl of forskolin (with final concentration of 10 μM) and incubated for 20 to 40 min at room temperature in incubator. The plate was then processed for the cAMP determination using cAMP Femto-2 HTRF kit (Cisbio, Germany) as per the manual.
The concentration of compound required to stimulate a half-maximal response (EC50) was determined using the GraphPad Prism software (version 5).
Molecule `CCN(C)C(=O)c1cnc(Nc2cccc(Cl)c2C)c2cccc(Cl)c12` [compound 357, 5-Chloro-1-((3-chloro-2-methylphenyl)amino)-N-ethyl-N-methyl isoquinolin-4-carboxamide] has an EC50 of less than 10 nM. With `O=C(c1cnc(Nc2cccc(C(F)(F)F)c2)c2cccc(C3CC3)c12)N1CCOCC1` [Example-118, (5-Cyclopropyl-1-((3-(trifluoromethyl)phenyl)amino)isoquinolin-4-yl)(morpholino)methanone] the EC50 was less than 10 nM. `Cc1cc(Nc2ncc(C(=O)N3CCCCC3)c3c(C)cccc23)ccc1F` [Example-94, (1-((4-Fluoro-3-methylphenyl)amino)-5-methylisoquinolin-4-yl)(piperidin-1-yl)methanone] showed an EC50 of less than 10 nM. `Cc1c(F)cccc1Nc1ncc(C(=O)N2CCCCC2)c2c(C)cccc12` [Example-96, (1-((3-Fluoro-2-methylphenyl)amino)-5-methylisoquinolin-4-yl)(piperidin-1-yl)methanone] gave an EC50 of less than 10 nM. Molecule `Cc1cccc2c(Nc3cccc(Cl)c3)ncc(C(=O)N3CCCC3)c12` [Example-102, (1-((3-Chlorophenyl)amino)-5-methylisoquinolin-4-yl)(pyrrolidin-1-yl)methanone] has an EC50 of 10 to 1000 nM. For `Cc1c(Nc2ncc(C(=O)N(C)C)c3c(Cl)cccc23)cccc1C(F)(F)F` [compound 329, 5-Chloro-N,N-dimethyl-1-((2-methyl-3-(trifluoromethyl)phenyl)amino)isoquinolin-4-carboxamide], the EC50 was less than 10 nM. Work on `CCN(CC)C(=O)c1cnc(Nc2cccc(Cl)c2C)c2cccc(Cl)c12` [compound 322, 5-Chloro-1-((3-chloro-2-methylphenyl)amino)-N,N-diethyl isoquinolin-4-carboxamide] yielded an EC50 of less than 10 nM. Work on `CCN(CC)C(=O)c1cnc(Nc2cccc(C(F)(F)F)c2F)c2cccc(C)c12` [compound 277, N,N-Diethyl-1-((2-fluoro-3-(trifluoromethyl)phenyl)amino)-5-methyl isoquinolin-4-carboxamide] yielded an EC50 of less than 10 nM. `Cc1cccc2c(Nc3cccc(Cl)c3)ncc(C(=O)N3CC4CC4C3)c12` (centres unmarked) [Example-75, 3-Azabicyclo[3.1.0]hexan-3-yl(1-((3-chlorophenyl)amino)-5-methylisoquinolin-4-yl)methanone] was tested, and the EC50 was less than 10 nM.

Same assay, conditions: CHO-hCB2 cells, cAMP, forskolin 10 μM, agonist testing; read-out: EC50 Range
Molecule `CCN(C)C(=O)c1cnc(Nc2cccc(C(F)(F)F)c2F)c2cccc(C)c12` [compound 292, N-Ethyl-1-((2-fluoro-3-(trifluoromethyl)phenyl)amino)-N,5-dimethyl isoquinolin-4-carboxamide] has an EC50 of less than 10 nM. `COC(=O)c1cccc(Nc2ccc(C(=O)N3CCCCC3)c3c(C)cccc23)c1C` [compound 409, Methyl 2-methyl-3-((5-methyl-4-(piperidin-1-carbonyl)naphthalen-1-yl)amino)benzoate] was tested, and the EC50 was less than 10 nM. With `O=C(c1cnc(Nc2cccc(C(F)(F)F)c2F)c2cccc(C3CC3)c12)N1CCOCC1` [Example-119, (5-Cyclopropyl-1-((2-fluoro-3-(trifluoromethyl)phenyl)amino)isoquinolin-4-yl)(morpholino)methanone] the EC50 was less than 10 nM. `Cc1ccc(Cl)cc1Nc1ncc(C(=O)N2CCOCC2)c2c(C)cccc12` [Example-88, (1-((5-Chloro-2-methylphenyl)amino)-5-methylisoquinolin-4-yl)(morpholino)methanone] was tested, and the EC50 was less than 10 nM. Molecule `CN(C)C(=O)c1ccc(Nc2cccc(F)c2C(F)(F)F)c2cccc(Cl)c12` [Example-469, 8-Chloro-4-((3-fluoro-2-(trifluoromethyl)phenyl)amino)-N,N-dimethyl-1-naphthamide] has an EC50 of 10 to 1000 nM. Work on `CN(C)C(=O)c1cnc(Nc2cccc(F)c2C(F)(F)F)c2cccc(Cl)c12` [compound 333, 5-Chloro-1-((3-fluoro-2-(trifluoromethyl)phenyl)amino)-N,N-di methylisoquinolin-4-carboxamide] yielded an EC50 of less than 10 nM. Molecule `CCc1cccc2c(Nc3cccc(C(F)(F)F)c3F)ncc(C(=O)N3CCCCC3)c12` [Example-129, (5-Ethyl-1-((2-Fluoro-3-(trifluoromethyl)phenyl)amino)isoquinolin-4-yl)(piperidin-1-yl)methanone] has an EC50 of less than 10 nM. In the case of `O=C(c1ccc(Nc2cc(F)cc(F)c2)c2ccccc12)N1CCOCC1` [Example-187, (4-((3,5-Difluorophenyl)amino)naphthalen-1-yl)(morpholino)methanone], the EC50 is reported as 10 to 1000 nM. For `Cc1cccc2c(Nc3cc(F)cc(F)c3)ncc(C(=O)N3CCCCC3)c12` [Example-24, (1-((3,5-Difluorophenyl)amino)-5-methylisoquinolin-4-yl)(piperidin-1-yl)methanone], the EC50 was less than 10 nM. In the case of `CN(C)C(=O)c1cnc(Nc2cccc(C(F)(F)F)c2Cl)c2cccc(Cl)c12` [compound 317, 5-Chloro-1-((2-chloro-3-(trifluoromethyl)phenyl)amino)-N,N-di methylisoquinolin-4-carboxamide], the EC50 is reported as less than 10 nM. `COC(=O)c1cccc(Nc2ccc(C(=O)N3CCOCC3)c3c(C)cccc23)c1C` [compound 410, Methyl 2-methyl-3-((5-methyl-4-(morpholin-4-carbonyl)naphthalen-1-yl)amino)benzoate] gave an EC50 of less than 10 nM. With `CCN(CC)C(=O)c1cnc(Nc2cccc(C(=O)OC)c2C)c2cccc(Cl)c12` [compound 249, Methyl 2-methyl-3-((5-chloro-4-(diethylcarbamoyl)isoquinolin-1-yl)amino)benzoate] the EC50 was less than 10 nM. Work on `CC1COCC(C)N1C(=O)c1ccc(Nc2cc(F)cc(F)c2)c2ccccc12` (centres unmarked) [Example-190, (4-((3,5-Difluorophenyl)amino)naphthalen-1-yl)(3,5-dimethylmorpholino)methanone] yielded an EC50 of 10 to 1000 nM. With `COc1cccc(Nc2ccc(C(=O)N3CCCCC3)c3c(C)cccc23)c1` [Example-161, (4-((3-Methoxyphenyl)amino)-8-methylnaphthalen-1-yl)(piperidin-1-yl)methanone] the EC50 was less than 10 nM. Molecule `CCN(C)C(=O)c1cnc(Nc2cccc(F)c2C(F)(F)F)c2cccc(Cl)c12` [compound 335, 5-Chloro-N-ethyl-1-((3-fluoro-2-(trifluoromethyl)phenyl)amino)-N-methylisoquinolin-4-carboxamide] has an EC50 of less than 10 nM. Work on `CCN(C)C(=O)c1cnc(Nc2cccc(C(F)(F)F)c2F)c2cccc(Cl)c12` [compound 334, 5-Chloro-N-ethyl-1-((2-fluoro-3-(trifluoromethyl)phenyl)amino)-N-methylisoquinolin-4-carboxamide] yielded an EC50 of less than 10 nM. With `Cc1c(F)cccc1Nc1ncc(C(=O)N2CC3CC3C2)c2c(C)cccc12` (centres unmarked) [Example-77, 3-Azabicyclo[3.1.0]hexan-3-yl(1-((3-fluoro-2-methylphenyl)amino)-5-methylisoquinolin-4-yl)methanone] the EC50 was less than 10 nM. Molecule `COC(=O)c1cccc(Nc2ccc(C(=O)N3CCCCC3)c3c(C)cccc23)c1` [compound 407, Methyl 3-((5-methyl-4-(piperidin-1-carbonyl)naphthalen-1-yl)amino) benzoate] has an EC50 of less than 10 nM. `Cc1cccc(Nc2ccc(C(=O)N3CCOCC3)c3c(C)cccc23)c1` [Example-150, (8-Methyl-4-(m-tolylamino)naphthalen-1-yl)(morpholino)methanone] showed an EC50 of less than 10 nM. Molecule `Cc1cccc2c(Nc3cc(F)ccc3F)ncc(C(=O)N3CCCCC3)c12` [Example-34, (1-((2,5-Difluorophenyl)amino)-5-methylisoquinolin-4-yl)(piperidin-1-yl)methanone] has an EC50 of less than 10 nM.
